Data: patent US12486267B2, “Imidazo[1,2-A]pyridine and [1,2,4]triazolo[1,5-A]pyridine derivatives as TLR9 inhibitors for the treatment of fibrosis” (BRISTOL-MYERS SQUIBB COMPANY, priority 2020, dated 2025)

molecular target: T1, human TLR9 (Homo sapiens, UniProt Q9NR96); assay: TLR9 inhibition reporter assay (HEK-Blue cells, SEAP reporter); format: cell-based; settings: HEK-Blue cells overexpressing human TLR9; stimulated with ODN2006 5 nM; 22 hour incubation; SEAP readout
T1 sequence (Q9NR96 26-1032): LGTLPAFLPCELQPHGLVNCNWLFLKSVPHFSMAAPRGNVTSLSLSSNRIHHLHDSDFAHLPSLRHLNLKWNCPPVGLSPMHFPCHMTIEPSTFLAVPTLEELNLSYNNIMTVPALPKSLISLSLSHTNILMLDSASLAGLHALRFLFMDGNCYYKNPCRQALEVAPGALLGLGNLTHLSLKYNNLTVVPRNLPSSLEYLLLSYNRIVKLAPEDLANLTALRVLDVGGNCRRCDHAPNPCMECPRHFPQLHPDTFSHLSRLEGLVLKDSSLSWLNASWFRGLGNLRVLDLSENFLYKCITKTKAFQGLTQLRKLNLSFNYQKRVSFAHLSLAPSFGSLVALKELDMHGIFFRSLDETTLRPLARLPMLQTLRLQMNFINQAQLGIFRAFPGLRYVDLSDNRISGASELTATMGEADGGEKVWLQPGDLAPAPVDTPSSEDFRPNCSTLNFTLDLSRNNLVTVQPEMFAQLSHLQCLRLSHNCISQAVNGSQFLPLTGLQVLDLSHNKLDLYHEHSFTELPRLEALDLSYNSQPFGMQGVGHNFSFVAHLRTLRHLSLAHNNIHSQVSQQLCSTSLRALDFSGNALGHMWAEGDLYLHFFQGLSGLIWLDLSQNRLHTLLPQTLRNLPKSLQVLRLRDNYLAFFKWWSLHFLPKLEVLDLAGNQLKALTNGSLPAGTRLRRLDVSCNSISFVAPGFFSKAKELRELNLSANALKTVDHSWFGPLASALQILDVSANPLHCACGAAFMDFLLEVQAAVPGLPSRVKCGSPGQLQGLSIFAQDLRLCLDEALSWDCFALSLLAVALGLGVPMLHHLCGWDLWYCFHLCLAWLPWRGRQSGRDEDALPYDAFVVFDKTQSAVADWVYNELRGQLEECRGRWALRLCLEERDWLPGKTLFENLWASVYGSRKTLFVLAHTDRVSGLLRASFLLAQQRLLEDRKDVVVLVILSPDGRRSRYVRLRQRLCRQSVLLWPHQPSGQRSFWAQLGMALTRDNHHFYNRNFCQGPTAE
Experimental: TLR7/8/9 Inhibition Reporter Assays
HEK-Blue™-cells (Invivogen) overexpressing human TLR7, TLR8 or TLR9 receptors were used for screening inhibitors of these receptors using an inducible SEAP (secreted embryonic alkaline phosphatase) reporter gene under the control of the […] minimal promoter fused to five NF-κB and AP-1-binding sites. Briefly, cells are seeded into Greiner 384 well plates (15000 cells per well for TLR7, 20,000 for TLR8 and 25,000 for TLR9) and then treated with test compounds in DMSO to yield a final dose response concentration range of 0.05 nM-50 μM. After a 30 minute compound pre-treatment at room temperature, the cells are then stimulated with a TLR7 ligand (gardiquimod at a final concentration of 7.5 μM), TLR8 ligand (R848 at a final concentration of 15.9 μM) or TLR9 ligand (ODN2006 at a final concentration of 5 nM) to activate NF-κB and AP-1 which induce the production of SEAP. After a 22 hour incubation at 37° C., 5% CO2, SEAP levels are determined with the addition of HEK-Blue™ Detection reagent (Invivogen), a cell culture medium that allows for detection of SEAP, according to manufacturer's specifications. The percent inhibition is determined as the % reduction in the HEK-Blue signal present in wells treated with agonist plus DMSO alone compared to wells treated with a known inhibitor.

IC50 | SMILES
19 nM | Cc1cc(C2CCN(C3CCN(C4CCC4)CC3)CC2)cn2cc(-c3ccc(S(C)(=O)=O)cc3)nc12 [Example 91, 6-(1′-cyclobutyl-[1,4′-bipiperidin]-4-yl)-8-methyl-2-(4-(methylsulfonyl)phenyl) imidazo[1,2-a]pyridine]
628 nM | COc1ccc(-c2nc3ccc(-c4ccc(N5CC6CCC(C5)N6C(C)C)cc4)cn3n2)cc1OC [Example 166]
1000 nM | COCCN1CCN(c2ccc(-c3cc(C)c4nc(-c5ccc(S(C)(=O)=O)cc5)cn4c3)cc2)CC1 [Example 105, 6-(4-(4-(2-methoxyethyl)piperazin-1-yl)phenyl)-8-methyl-2-(4-(methylsulfonyl)phenyl) imidazo[1,2-a]pyridine]
9.1 nM | CC(C)CN1C2CCC1CC(N1CCC([C@@H]3CCc4nc(-c5ccc(S(C)(=O)=O)cc5)cn4C3)CC1)C2 (single isomer, unassigned) [Example 81]
1630 nM | CC(C)N1CCN(c2ccc(-c3ccc4nc(-c5ccc(S(C)(=O)=O)cc5)nn4c3)cc2)CC1 [Example 167, 6-(4-(4-isopropylpiperazin-1-yl)phenyl)-2-(4-(methylsulfonyl)phenyl)-[1,2,4]triazolo[1,5-a]pyridine]
158 nM | CS(=O)(=O)c1ccc(-c2cn3cc(C4CCN(C5CCN(C6CC6)CC5)CC4)c(F)cc3n2)cc1 [Example 124, 6-(1′-cyclopropyl-[1,4′-bipiperidin]-4-yl)-7-fluoro-2-(4-(methylsulfonyl)phenyl) imidazo[1,2-a]pyridine]
1370 nM | COc1ccc(-c2nc3c(C)cc(-c4ccc(N5CC6CCC(C5)N6C(C)C)cc4)cn3n2)cc1OC [Example 151, 2-(3,4-dimethoxyphenyl)-6-(4-(8-isopropyl-3,8-diazabicyclo[3.2.1]octan-3-yl)phenyl)-8-methyl-[1,2,4]triazolo[1,5-a]pyridine]
7740 nM | CC1CC(c2ccc(N3CC4CCC(C3)N4C(C)C)cc2)Cn2nc(-c3ccc(S(C)(=O)=O)cc3)nc21 (stereo not drawn) [Example 154, 6-(4-(8-isopropyl-3,8-diazabicyclo[3.2.1]octan-3-yl)phenyl)-8-methyl-2-(4-(methylsulfonyl)phenyl)-5,6,7,8-tetrahydro-[1,2,4]triazolo[1,5-a]pyridine]
113 nM | COc1ccc(-c2nc3ccc(C4CCN(C5CCN(C(C)C)CC5)CC4)cn3n2)cc1OC [Example 165, 2-(3,4-dimethoxyphenyl)-6-(1′-isopropyl-[1,4′-bipiperidin]-4-yl)-[1,2,4]triazolo[1,5-a]pyridine]
1460 nM | COc1ccc(-c2nc3n(n2)CC(c2ccc(N4CCN(C(C)C)CC4)cc2)CC3C)cc1OC (stereo not drawn) [Example 144, 2-(3,4-dimethoxyphenyl)-6-(4-(4-isopropylpiperazin-1-yl)phenyl)-8-methyl-5,6,7,8-tetrahydro-[1,2,4]triazolo[1,5-a]pyridine]
12 nM | Cc1cc(C2CCN(C3CC4CCC(C3)N4C3CCC3)CC2)cn2cc(-c3ccc(S(C)(=O)=O)cc3)nc12 (single isomer, unassigned) [Example 83, 6-(1-(8-cyclobutyl-8-azabicyclo[3.2.1]octan-3-yl)piperidin-4-yl)-8-methyl-2-(4-(methylsulfonyl)phenyl)imidazo[1,2-a]pyridine]
909 nM | Cc1cc(-c2ccc(N3CCN(C(C)C)CC3)cc2)cn2nc(-c3ccc(S(C)(=O)=O)cc3)nc12 [Example 147, 6-(4-(4-isopropylpiperazin-1-yl)phenyl)-8-methyl-2-(4-(methylsulfonyl)phenyl)-[1,2,4]triazolo[1,5-a]pyridine]
342 nM | COc1ccc(-c2nc3n(n2)CC(C2CC4CCC(C2)N4C2CCN(C4CC4)CC2)CC3)cc1OC (stereo not drawn) [Example 145, 6-(8-(1-cyclopropylpiperidin-4-yl)-8-azabicyclo[3.2.1]octan-3-yl)-2-(3,4-dimethoxyphenyl)-5,6,7,8-tetrahydro-[1,2,4]triazolo[1,5-a]pyridine]
270 nM | Cc1cc(C2CCN(C3CCN(C4CC4)CC3)CC2)cn2nc(-c3ccc(S(C)(=O)=O)cc3)nc12 [Example 161, 6-(1′-cyclopropyl-[1,4′-bipiperidin]-4-yl)-8-methyl-2-(4-(methylsulfonyl)phenyl)-[1,2,4]triazolo[1,5-a]pyridine]
120 nM | Cc1cc(C2CCN(C3CC4CCC(C3)N4CC3CC3)CC2)cn2cc(-c3ccc(S(C)(=O)=O)cc3)nc12 (single isomer, unassigned) [Example 88, 6-(1-(8-(cyclopropylmethyl)-8-azabicyclo[3.2.1]octan-3-yl)piperidin-4-yl)-8-methyl-2-(4-(methylsulfonyl)phenyl) imidazo[1,2-a]pyridine]
98 nM | Cc1cc(C2CCN(C3CC4CCC(C3)N4C(C)C)CC2)cn2cc(-c3ccc(S(C)(=O)=O)cc3)nc12 (single isomer, unassigned) [Example 62, 6-(1-(8-isopropyl-8-azabicyclo[3.2.1]octan-3-yl)piperidin-4-yl)-8-methyl-2-(4-(methylsulfonyl)phenyl)imidazo[1,2-a]pyridine]
659 nM | Cc1cc(-c2ccc(N3CC4CCC(C3)N4C(C)C)cc2)cn2nc(-c3ccc(S(C)(=O)=O)cc3)nc12 [Example 153, 6-(4-(8-isopropyl-3,8-diazabicyclo[3.2.1]octan-3-yl)phenyl)-8-methyl-2-(4-(methylsulfonyl)phenyl)-[1,2,4]triazolo[1,5-a]pyridine]
303 nM | COc1ccc(-c2nc3n(n2)CC(C2CC4CCC(C2)N4C2CCN(C(C)C)CC2)CC3)cc1OC (stereo not drawn) [Example 148, 2-(3,4-dimethoxyphenyl)-6-(8-(1-isopropylpiperidin-4-yl)-8-azabicyclo[3.2.1]octan-3-yl)-5,6,7,8-tetrahydro-[1,2,4]triazolo[1,5-a]pyridine]
152 nM | COc1ccc(-c2nc3c(C)cc(C4CCN(C5CCN(C(C)C)CC5)CC4)cn3n2)cc1OC [Example 158, 2-(3,4-dimethoxyphenyl)-6-(1′-isopropyl-[1,4′-bipiperidin]-4-yl)-8-methyl-[1,2,4]triazolo[1,5-a] pyridine]

SMILES | IC50
COc1ccc(-c2nc3c(C)cc(C4CC5CCC(C4)N5C4CCN(C5CC5)CC4)cn3n2)cc1OC (stereo not drawn) [Example 155, 6-(8-(1-cyclopropylpiperidin-4-yl)-8-azabicyclo[3.2.1]octan-3-yl)-2-(3,4-dimethoxyphenyl)-8-methyl-[1,2,4]triazolo[1,5-a]pyridine] | 214 nM
COc1ccc(-c2nc3ccc(C4CC5CCC(C4)N5C4CCN(C5CC5)CC4)cn3n2)cc1OC (stereo not drawn) [Example 146, 6-(8-(1-cyclopropylpiperidin-4-yl)-8-azabicyclo[3.2.1]octan-3-yl)-2-(3,4-dimethoxyphenyl)-[1,2,4]triazolo[1,5-a]pyridine] | 769 nM
COc1ccc(-c2nc3c(C)cc(C4CC5CCC(C4)N5C4CCN(C(C)C)CC4)cn3n2)cc1OC (stereo not drawn) [Example 156, 2-(3,4-dimethoxyphenyl)-6-(8-(1-isopropylpiperidin-4-yl)-8-azabicyclo[3.2.1]octan-3-yl)-8-methyl-[1,2,4]triazolo[1,5-a]pyridine] | 234 nM
COc1ccc(-c2cn3cc(C4CC5CCC(C4)N5C4CCN(CC(C)C)CC4)cc(C)c3n2)cc1OC (single isomer, unassigned) [Example 29, 2-(3,4-dimethoxyphenyl)-6-(8-(1-isobutylpiperidin-4-yl)-8-azabicyclo[3.2.1]octan-3-yl)-8-methylimidazo[1,2-a]pyridine] | 10 nM
COc1ccc(-c2cn3cc(C4CC5CCC(C4)N5C4CCN(CC(C)C)CC4)cc(C)c3n2)cc1OC (single isomer, unassigned) [Example 28, 2-(3,4-dimethoxyphenyl)-6-(8-(1-isobutylpiperidin-4-yl)-8-azabicyclo[3.2.1]octan-3-yl)-8-methylimidazo[1,2-a]pyridine] | 7.9 nM
